Test results as given in PubChem BioAssay (NCI).
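Method: 48-hour compound exposure of cells in 96-well plates, five concentrations, linear interpolation of endpoints. At the GI50, growth is halved. TGI: total growth inhibition.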

How the values were obtained:
Experiment in all cases: NCI tumour cell line growth inhibition, 48 h
U251 CNS = system: U251 CNS
SF-539 CNS = system: SF-539 CNS
NCI-H522 lung = system: NCI-H522 lung
RXF 393 renal = system: RXF 393 renal
A498 renal = system: A498 renal
SW-620 colon = system: SW-620 colon
PC-3 prostate = system: PC-3 prostate
HOP-62 NSCLC = system: HOP-62 NSCLC
OVCAR-4 ovarian = system: OVCAR-4 ovarian
SK-OV-3 ovarian = system: SK-OV-3 ovarian
DU-145 prostate = system: DU-145 prostate
SK-MEL-5 melanoma = system: SK-MEL-5 melanoma
HOP-92 NSCLC = system: HOP-92 NSCLC
OVCAR-8 ovarian = system: OVCAR-8 ovarian
MOLT-4 leukemia = system: MOLT-4 leukemia
TK-10 renal = system: TK-10 renal
MDA-MB-435 = system: MDA-MB-435
HCC-2998 colon = system: HCC-2998 colon
ACHN renal = system: ACHN renal
SF-268 CNS = system: SF-268 CNS
RPMI-8226 leukemia = system: RPMI-8226 leukemia
K-562 leukemia = system: K-562 leukemia
CCRF-CEM leukemia = system: CCRF-CEM leukemia
NCI/ADR-RES ovarian = system: NCI/ADR-RES ovarian
NCI-H226 lung = system: NCI-H226 lung
HCT-15 colon = system: HCT-15 colon
MDA-MB-231 breast = system: MDA-MB-231 breast
UO-31 renal = system: UO-31 renal
HS 578T breast = system: HS 578T breast
OVCAR-3 ovarian = system: OVCAR-3 ovarian
SNB-75 CNS = system: SNB-75 CNS
HCT-116 colon = system: HCT-116 colon
SK-MEL-2 melanoma = system: SK-MEL-2 melanoma
COLO 205 colon = system: COLO 205 colon
SR leukemia = system: SR leukemia
BT-549 breast = system: BT-549 breast
SK-MEL-28 melanoma = system: SK-MEL-28 melanoma
SF-295 CNS = system: SF-295 CNS
KM12 colon = system: KM12 colon
UACC-62 melanoma = system: UACC-62 melanoma
IGROV1 ovarian = system: IGROV1 ovarian
M14 melanoma = system: M14 melanoma
MALME-3M melanoma = system: MALME-3M melanoma
MCF7 breast = system: MCF7 breast
NCI-H460 lung = system: NCI-H460 lung
HL-60(TB) leukemia = system: HL-60(TB) leukemia
786-0 renal = system: 786-0 renal
EKVX NSCLC = system: EKVX NSCLC
T-47D breast = system: T-47D breast
SNB-19 CNS = system: SNB-19 CNS
SN12C renal = system: SN12C renal
OVCAR-5 ovarian = system: OVCAR-5 ovarian
NCI-H23 lung = system: NCI-H23 lung
A549 NSCLC = system: A549 NSCLC
LOX IMVI melanoma = system: LOX IMVI melanoma
HT29 colon = system: HT29 colon
UACC-257 melanoma = system: UACC-257 melanoma
CAKI-1 renal = system: CAKI-1 renal

**Q.** Which results are given for CN1CCN(Cc2ccc(NC(=O)c3cncc(C#Cc4ncc5ccccn45)c3)cc2C(F)(F)F)CC1?
**A.** GI50 (U251 CNS): 2890 nM; TGI (U251 CNS): 6390 nM; GI50 (SF-539 CNS): 471 nM; TGI (SF-539 CNS): 1910 nM; GI50 (NCI-H522 lung): 1430 nM; TGI (NCI-H522 lung): 5580 nM; GI50 (RXF 393 renal): 1090 nM; TGI (RXF 393 renal): 3730 nM; GI50 (A498 renal): 2830 nM; TGI (A498 renal): 5960 nM; GI50 (SW-620 colon): 842 nM; TGI (SW-620 colon): 3120 nM; GI50 (PC-3 prostate): 1270 nM; TGI (PC-3 prostate): 8650 nM; GI50 (HOP-62 NSCLC): 1450 nM; TGI (HOP-62 NSCLC): 4770 nM; GI50 (OVCAR-4 ovarian): 531 nM; TGI (OVCAR-4 ovarian): 4570 nM; GI50 (SK-OV-3 ovarian): 1330 nM; TGI (SK-OV-3 ovarian): 4580 nM; GI50 (DU-145 prostate): 1350 nM; TGI (DU-145 prostate): 4510 nM; GI50 (SK-MEL-5 melanoma): 3130 nM; TGI (SK-MEL-5 melanoma): 6370 nM; GI50 (HOP-92 NSCLC): 762 nM; TGI (HOP-92 NSCLC): 2370 nM; GI50 (OVCAR-8 ovarian): 2210 nM; TGI (OVCAR-8 ovarian): 5420 nM; GI50 (MOLT-4 leukemia): 892 nM; TGI (MOLT-4 leukemia): 5820 nM; GI50 (TK-10 renal): 3430 nM; TGI (TK-10 renal): 8210 nM; GI50 (MDA-MB-435): 2010 nM; TGI (MDA-MB-435): 5230 nM; GI50 (HCC-2998 colon): 3370 nM; TGI (HCC-2998 colon): 6990 nM; GI50 (ACHN renal): 967 nM; TGI (ACHN renal): 3800 nM; GI50 (SF-268 CNS): 2060 nM; TGI (SF-268 CNS): 7220 nM; GI50 (RPMI-8226 leukemia): 858 nM; TGI (RPMI-8226 leukemia): 4150 nM; GI50 (K-562 leukemia): 2.5 nM; TGI (K-562 leukemia): 2910 nM; GI50 (CCRF-CEM leukemia): 962 nM; TGI (CCRF-CEM leukemia): 8300 nM; GI50 (NCI/ADR-RES ovarian): 2770 nM; TGI (NCI/ADR-RES ovarian): 16000 nM; GI50 (NCI-H226 lung): 451 nM; TGI (NCI-H226 lung): 3910 nM; GI50 (HCT-15 colon): 1200 nM; TGI (HCT-15 colon): 7400 nM; GI50 (MDA-MB-231 breast): 881 nM; TGI (MDA-MB-231 breast): 5920 nM; GI50 (UO-31 renal): 1250 nM; TGI (UO-31 renal): 3720 nM; GI50 (HS 578T breast): 688 nM; TGI (HS 578T breast): 3610 nM; GI50 (OVCAR-3 ovarian): 2430 nM; TGI (OVCAR-3 ovarian): 8210 nM; GI50 (SNB-75 CNS): 2730 nM; TGI (SNB-75 CNS): 5770 nM; GI50 (HCT-116 colon): 674 nM; TGI (HCT-116 colon): 3060 nM; GI50 (SK-MEL-2 melanoma): 876 nM; TGI (SK-MEL-2 melanoma): 3820 nM; GI50 (COLO 205 colon): 561 nM; TGI (COLO 205 colon): 1390 nM; GI50 (SR leukemia): 511 nM; TGI (SR leukemia): 1410 nM; GI50 (BT-549 breast): 1980 nM; TGI (BT-549 breast): 5030 nM; GI50 (SK-MEL-28 melanoma): 2820 nM; TGI (SK-MEL-28 melanoma): 6190 nM; GI50 (SF-295 CNS): 1350 nM; TGI (SF-295 CNS): 4750 nM; GI50 (KM12 colon): 11.2 nM; TGI (KM12 colon): 2900 nM; GI50 (UACC-62 melanoma): 3040 nM; TGI (UACC-62 melanoma): 6760 nM; GI50 (IGROV1 ovarian): 892 nM; TGI (IGROV1 ovarian): 4070 nM; GI50 (M14 melanoma): 1010 nM; TGI (M14 melanoma): 3980 nM; GI50 (MALME-3M melanoma): 772 nM; TGI (MALME-3M melanoma): 3600 nM; GI50 (MCF7 breast): 738 nM; TGI (MCF7 breast): 3070 nM; GI50 (NCI-H460 lung): 1020 nM; TGI (NCI-H460 lung): 3860 nM; GI50 (HL-60(TB) leukemia): 845 nM; TGI (HL-60(TB) leukemia): 2760 nM; GI50 (786-0 renal): 3000 nM; TGI (786-0 renal): 6400 nM; GI50 (EKVX NSCLC): 1300 nM; TGI (EKVX NSCLC): 5540 nM; GI50 (T-47D breast): 1600 nM; TGI (T-47D breast): 6760 nM; GI50 (SNB-19 CNS): 3090 nM; TGI (SNB-19 CNS): 8440 nM; GI50 (SN12C renal): 1260 nM; TGI (SN12C renal): 4410 nM; GI50 (OVCAR-5 ovarian): 1760 nM; TGI (OVCAR-5 ovarian): 8410 nM; GI50 (NCI-H23 lung): 1340 nM; TGI (NCI-H23 lung): 5750 nM; GI50 (A549 NSCLC): 1350 nM; TGI (A549 NSCLC): 5480 nM; GI50 (LOX IMVI melanoma): 1270 nM; TGI (LOX IMVI melanoma): 4550 nM; GI50 (HT29 colon): 827 nM; TGI (HT29 colon): 8960 nM; GI50 (UACC-257 melanoma): 1440 nM; TGI (UACC-257 melanoma): 4570 nM; GI50 (CAKI-1 renal): 913 nM; TGI (CAKI-1 renal): 3990 nM
